Source: patent US10766888B1, “HMOX1 inducers” (Mitobridge Inc., priority 2019, dated 2020)
Structures can show the parent of a compound that is named as a salt.

Tested on: Human Heme Oxygenase-1 (HMOX-1)
Assay: ELISA assay to measure human heme oxygenase-1 (HMOX-1) in HepG2 lysate
Type: cell-based
Conditions: human HMOX1 protein level in HepG2 lysate; * = average of 2 or more EC50 determinations; NA = Not Active; read-out: EC50
Procedure: Example 143. ELISA Assay to Measure Human Heme Oxygenase-1 (HMOX-1) in HepG2 lysate
Reagents and Technical Notes:
ELISA capture antibody, standard HO-1, detection antibody and streptavidin HRP were supplied in the DuoSet IC Human total HO-1 ELISA from R&D systems (DYC3776-2). The substrate cocktail was KPL LumiGLO reserve Chemiluminescent Substrate (54-71-00). PBS was Corning Cellgro Cell Culture (21-040-CV). 10×PBS+0.05% tween20 (PBST) was from KPL.
All incubations of the plate were at room temperature (20° C.) in a closed drawer.
The ELISA plate was processed manually. All loadings were with a multichannel pipet. Plates were emptied by shaking into the sink and tapping onto paper towels to remove any remaining reagent. Plate washing was accomplished by loading all wells with PBS+0.05% tween20 (PBST) using a squirt bottle, shaking the PBST out and tapping the plate onto paper towels.
Preparation of the ELISA Plate:
• 1. anti-HO-1 capture antibody was 1440 μg/ml after reconstitution in PBS. This antibody was diluted to 8 μg/ml in PBS and 50 μl per well was added to a 384 well greiner “lumitrac 200” plate. Incubated overnight. • 2. The plate was emptied and 100 μl PBS+1% BSA added to all wells. Incubated 90 minutes at room temperature. Preparation of HepG2 Lysate: • 1. Cells were cultured in a 96-well tissue culture plate washed with PBS and then the plate frozen at −70° C. overnight. Plates were allowed to warm to ice temperature in an ice bucket. 20 μl of PBS, 0.5% Triton X100, 1 mM EDTA with 1×HALT™ protease inhibitors was added to each well and the plates incubated on ice for 1 hour. • 2. The lysates were frozen at −20° C. overnight. Measurement of HMOX1 (“HO-1”) • 1. In a polypropylene 384 well plate, human HO-1 (after reconstitution in PBS+0.5% Triton+1 mM EDTA) was serially diluted from 20 ng/ml 2-fold in PBS+0.5% triton-X100, 1 mM EDTA to make a 12-point standard curve including a zero point. • 2. In a polypropylene 96 well plate, HepG2 lysate was diluted 1 to 20 in Diluent #4 from DUOSET kit in which the assay standard is also diluted. • 3. The PBS+1% BSA was emptied from the ELISA plate and 30 μl of all samples and standards were added (duplicates recommended). The plate was incubated 90 minutes. • 4. Emptied plate and washed 4 times with PBST. • 5. Diluted HO-1 detection antibody to 200 ng/ml in PBS+1% BSA and added 30 μl to all wells. Incubated 90 minutes. • 6. Emptied plate and washed 4 times with PBST. • 7. Added 30 μl streptavidin HRP at 1/200 in PBS+1% BSA (stock streptavidin concentration not specified) to all wells. Incubated 30 minutes. • 8. Emptied plate and washed 4 times with PBST. • 9. Diluted Lumiglo reserve reagent two parts buffer to one part lumiglo substrate. Added 30 μl to all wells. Incubated 5 minutes. • 10. Measured chemiluminescence on spectramax M5 using 150 ms integration.
Table 1 below lists EC50 and fold changes of human HMOX1 protein levels relative to DMSO control upon treatment with representative compounds.

CCn1c(Nc2nc3ccc(OC(F)(F)F)cc3o2)nc2cc(C(=O)O)ccc21 [Example 84, 1-ethyl-2-((6-(trifluoromethoxy)benzo[d]oxazol-2-yl)amino)-1H-benzo[d]imidazole-5-carboxylic acid]
EC50: 5.4 µM

CCn1c(Nc2nc3ccc(OC(F)(F)F)cc3o2)nc2cc(C(=O)NCCOC)ccc21 [Example 85, 1-ethyl-N-(2-methoxyethyl)-2-((6-(trifluoromethoxy)benzo[d]oxazol-2-yl)amino)-1H-benzo[d]imidazole-5-carboxamide]
EC50: 1.3 µM

O=C(O)c1ccc2c(c1)nc(Nc1nc3ccc(OC(F)(F)F)cc3o1)n2CC1CCOC1 (stereo not shown) [Example 87, 1-((tetrahydrofuran-3-yl)methyl)-2-((6-(trifluoromethoxy)-benzo[d]oxazol-2-yl)amino)-1H-benzo[d]imidazole-5-carboxylic acid]
EC50: 6.8 µM

COCCNC(=O)c1ccc2c(c1)nc(Nc1nc3ccc(OC(F)(F)F)cc3o1)n2CC1CCOC1 (stereo not shown) [Example 88, N-(2-methoxyethyl)-1-((tetrahydrofuran-3-yl)methyl)-2-((6-(trifluoromethoxy)benzo[d]oxazol-2-yl)amino)-1H-benzo[d]imidazole-5-carboxamide]
EC50: 1.5 µM

COCCNC(=O)c1ccc2c(c1)nc(Nc1nc3ccc(OC(F)(F)F)cc3o1)n2CCS(C)(=O)=O [Example 90, N-(2-methoxyethyl)-1-(2-(methylsulfonyl)ethyl)-2-((6-(trifluoromethoxy)benzo[d]oxazol-2-yl)amino)-1H-benzo[d]imidazole-5-carboxamide]
EC50: 4.8 µM

O=C(NCCO)c1ccc2c(c1)nc(Nc1nc3ccc(OC(F)(F)F)cc3o1)n2CC1(O)COC1 [Example 95, N-(2-hydroxyethyl)-1-((3-hydroxyoxetan-3-yl)methyl)-2-((6-(trifluoromethoxy)benzo[d]oxazol-2-yl)amino)-1H-benzo[d]imidazole-5-carboxamide]
EC50: 1.6 µM

Cn1c(Nc2nc3ccc(Cl)cc3o2)nc2cc(C(=O)O)ccc21 [Example 96, 2-((6-chlorobenzo[d]oxazol-2-yl)amino)-1-methyl-1H-benzo[d]imidazole-5-carboxylic acid]
EC50: 2.8 µM

Cn1c(Nc2nc3ccc(OCC(F)(F)F)cc3o2)nc2cc(C(=O)O)ccc21 [Example 98, 1-methyl-2-((6-(2,2,2-trifluoroethoxy)benzo[d]oxazol-2-yl)amino)-1H-benzo[d]imidazole-5-carboxylic acid]
EC50: 4.1 µM

Cn1c(Nc2nc3ccc(OCCO)cc3o2)nc2cc(C(=O)NCCN)ccc21 [Example 105, N-(2-aminoethyl)-2-((6-(2-hydroxyethoxy)benzo[d]oxazol-2-yl)amino)-1-methyl-1H-benzo[d]imidazole-5-carboxamide hydrochloride]
EC50: 4.1 µM

Cn1c(Nc2nc3cc(F)c(C(F)(F)F)cc3o2)nc2cc(C(=O)O)ccc21 [Example 107, 2-((5-fluoro-6-(trifluoromethyl)benzo[d]oxazol-2-yl)amino)-1-methyl-1H-benzo[d]imidazole-5-carboxylic acid]
EC50: 4.5 µM

Cn1c(Nc2nc3ccc(C4CC4)cc3o2)nc2cc(C(=O)O)ccc21 [Example 115, 2-((6-cyclopropylbenzo[d]oxazol-2-yl)amino)-1-methyl-1H-benzo[d]imidazole-5-carboxylic acid]
EC50: 6.2 µM

COCCNC(=O)c1ccc2c(c1)nc(Nc1nc3ccc(C4CC4)cc3o1)n2C [Example 116, 2-((6-cyclopropylbenzo[d]oxazol-2-yl)amino)-N-(2-methoxyethyl)-1-methyl-1H-benzo[d]imidazole-5-carboxamide]
EC50: 3 µM

Cn1c(Nc2nc3cc(C(=O)NCCOCCO)ccc3o2)nc2ccccc21 [Example 118, N-(2-(2-hydroxyethoxy)ethyl)-2-((1-methyl-1H-benzo[d]imidazol-2-yl)amino)benzo[d]oxazole-5-carboxamide]
EC50: 8 µM
